Assay [1] has as its target T1, human CB1 receptor (Homo sapiens, UniProt P21554). The assay is described as follows: Human CB1 receptor binding, [3H] CP-55,940 displacement on HEK cell membranes. Further details: expressed in transfected cells; membranes. Conditions: [3H] CP-55,940 500 pM. The method, then:
The Human CB1 receptor binding affinity and other biological activities of the compounds of this invention are determined by the following procedures.
Membrane preparation: Human Embryonic Kidney (HEK) Cells expressing the human CB1 receptor under transcriptional regulation of a tetracycline inducible promoter were grown in Dulbecco's Modified Essential Medium with sodium pyruvate (Invitrogen, Carlsbad, Calif.) containing 10% tetracycline free fetal bovine serum (Clonetech, Mountain View, Calif.) 100 μg/ml hygromycin (Calbiochem, San Diego, Calif.), 5 μg/ml blasticidin (Invitrogen). CB1 receptor expression was induced by addition of 1 μg/ml doxycycline (Calbiochem) and incubation for an additional 24 hours. Cells were released from flasks using Cell Dissociation Buffer (Invitrogen). Cells were pelleted by centrifugation at 500×G for 5 minutes. Membranes were prepared by resuspending cells in ice cold TEE Buffer (25 mM Tris pH 7.4, 5 mM EDTA, 5 mM EGTA, Complete Protease Inhibitor (Roche, Basel, Switzerland)). Cells were lysed with 12 strokes of a dounce homogenizer. Unlysed cells were pelleted by centrifugation at 500×G for 5 minutes. Membranes were pelleted by centrifugation at 25,000×G for 30 minutes. Membranes were resuspended in TEE, dounced 12 strokes, and pelleted a second time at 25,000×G for 30 minutes. Membrane pellet was resuspended in 50 mM Tris pH 7.4, 100 mM NaCl, 3 mM MgCl2, 0.2 mM EGTA, Complete Protease Inhibitor (Roche). Protein concentration was determined using the Micro-BCA Protein Assay Kit (Pierce, Rockford, Ill.) using BSA as a standard. Membranes were quick frozen and stored at −80 degrees Celsius until use. Binding experiments: 50 μl of test compound was incubated with 50 μl, of [^3H] CP-55,940 (Perkin Elmer, Boston, Mass.) (final concentration 500 pM) and 150 μl of membrane homogenate (1 μg/well) in polypropylene 96-well plates (Corning, Acton, Mass.). Final reaction conditions were 50 mM Tris pH 7.4, 100 mM NaCl, 3 mM MgCl2, 0.2 mM EGTA, 0.04% BSA. Nonspecific binding was determined by incubation with 50 μM WIN-55,212-2 (Tocris, Ellisville, Mo.). After incubation at room temperature for 60 minutes reactions were harvested by vacuum filtration through Unifilter GF/B-96 filters (Perkin Elmer) that had been presoaked in assay buffer containing 0.5% BSA (Sigma, St. Louis, Mo.) using a FilterMate Plate Harvester (Perkin Elmer). Filters were rinsed 4 times with 50 mM Tris pH 7.4, 0.025% Tween20 and dried at 50 degrees Celsius for at least 30 minutes. 40 μl of Microscint-20 (Perkin Elmer) was added per well, and plates were counted using a Top-Count Microplate Scintillation Counter (Perkin Elmer). Binding data were analyzed and EC50 and Ki values calculated using Graph Pad Prism 4.0 Software.

Assay [2] addresses T1, human CB1 receptor. The assay is described as follows: GTPγS binding on membranes of CHO cells expressing the human CB1 receptor. Format: biochemical. Further details: expressed in transfected cells; host or cells: CHO cells (G418 selection); membranes. Conditions: CHO cell membranes, [35S] GTPγS. How it is done:
Membrane preparation: CHO cells expressing the human CB1 receptor were grown to 80% confluence in Ham's F-12 Nutrient Medium (Invitrogen) containing 10% fetal bovine serum (Invitrogen), 1% pen/strep (Invitrogen), 1% Nonessential amino acids (Invitrogen) and 500 μg/ml G418 (Invitrogen). Cells were released from flasks using Cell Dissociation Buffer (Invitrogen). Cells were pelleted by centrifugation at 500×G for 5 minutes. Membranes were prepared by resuspending cells in ice cold Assay Buffer (25 mM Tris pH 7.4, 5 mM EDTA, 5 mM EGTA, Complete Protease Inhibitor (Roche)). Cells were lysed with 12 strokes of a dounce homogenizer. Unlysed cells were pelleted by centrifugation at 500×G for 5 minutes. Membranes were pelleted by centrifugation at 25,000×G for 30 minutes. Membranes were resuspended in TEE, dounced 12 strokes, and pelleted a second time at 25,000×G for 30 minutes. Membrane pellet was resuspended in 50 mM Tris pH 7.4, 100 mM NaCl, 3 mM MgCl2, 0.2 mM EGTA, Complete Protease Inhibitor (Roche). Protein concentration was determined using the Micro-BCA Protein Assay Kit (Pierce) using BSA as a standard. Membranes were frozen and stored at −80 degrees Celsius until use. GTPγS Binding: 40 μl of test compound was incubated with 20 μl of [^35S] GTPγS (Perkin Elmer) (1250 Ci/millimole) and 140 μl of membrane homogenate (5 ug/well) in polypropylene 96-well plates (Corning). Final reaction conditions were 50 mM Tris pH 7.4, 100 mM NaCl, 3 mM […], 0.2 mM EGTA, 0.04% BSA. After incubation at 37 degrees Celsius for 45 minutes reactions were harvested by vacuum filtration through Unifilter GF/B-96 filters (Perkin Elmer) using a FilterMate Plate Harvester (Perkin Elmer). Filters were rinsed 4 times with ice cold 50 mM Tris pH 7.4, 3 mM MgCl2, 0.2 mM EGTA and dried at 50 degrees Celsius for at least 30 minutes. 40 μl of Microscint-20 (Perkin Elmer) was added per well, and plates were counted using a Top-Count Microplate Scintillation Counter (Perkin Elmer). Binding data were analyzed and EC50 values were calculated using Graph Pad Prism 4.0 Software.

T1 sequence (P21554 whole entry): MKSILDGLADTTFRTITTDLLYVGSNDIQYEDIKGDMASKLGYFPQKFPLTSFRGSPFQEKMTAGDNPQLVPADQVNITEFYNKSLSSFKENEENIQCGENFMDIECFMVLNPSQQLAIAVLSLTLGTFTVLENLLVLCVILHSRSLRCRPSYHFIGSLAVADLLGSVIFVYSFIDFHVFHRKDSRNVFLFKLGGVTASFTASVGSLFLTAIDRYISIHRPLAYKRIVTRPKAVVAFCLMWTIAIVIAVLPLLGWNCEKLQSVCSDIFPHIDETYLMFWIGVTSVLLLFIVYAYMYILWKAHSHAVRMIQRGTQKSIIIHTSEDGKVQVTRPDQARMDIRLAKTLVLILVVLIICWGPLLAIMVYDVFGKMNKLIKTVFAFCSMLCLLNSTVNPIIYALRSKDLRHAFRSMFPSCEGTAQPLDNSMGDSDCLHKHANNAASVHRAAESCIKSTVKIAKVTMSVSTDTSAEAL

With `O=C(N[C@H]1CCCc2ccccc21)n1c(=O)n(CC2CCOCC2)c2ccccc21` [Example 276], the inhibitory constant (Ki) – broadly, a dissociation constant, usually derived from enzyme kinetics or from competition with a known ligand – on human CB1 receptor [1] was 0.000374 µM. Besides, on human CB1 receptor [2], the EC50 (as a rule, the concentration at which the effect is half-maximal) worked out at 0.0058 µM.

Regarding `CC(C)(C)[C@H](NC(=O)n1c(=O)n(CCCC(F)(F)F)c2ccccc21)C(N)=O` [Example 293], the Ki on human CB1 receptor [1] was determined as 0.00145 µM. In addition, at human CB1 receptor [2], the EC50 was 0.0324 µM.

Molecule `CC(C)(C)[C@H](NC(=O)n1c(=O)n(CC2CCCCC2)c2c(Cl)cccc21)C(N)=O` [Example 173] gave an inhibition constant Ki on human CB1 receptor [1] of 0.00034 µM. Moreover, the EC50 at human CB1 receptor [2] amounted to 0.0025 µM.

With `CC(C)(C)[C@H](NC(=O)n1c(=O)n(CC2CCOCC2)c2cc(F)ccc21)C(=O)NC1CC1` [Example 310], the affinity at human CB1 receptor [1], expressed as Ki, was 0.0302 µM. For the same molecule, on human CB1 receptor [2], the 50% effective concentration (EC50) was determined as 0.173 µM.

Turning to `CC(C)(C)[C@H](NC(=O)n1c(=O)n(CC2CCOCC2)c2cc(F)ccc21)c1nnc(N)o1` [Example 347], the inhibition constant Ki on human CB1 receptor [1] amounted to 0.0095 µM. At human CB1 receptor [2], this molecule showed an EC50 of 0.229 µM.

Regarding `CC(C)(C)[C@H](NC(=O)n1c(=O)n(CCC(F)(F)F)c2ccccc21)C(N)=O` [Example 227], the affinity on human CB1 receptor [1] corresponds to a Ki of 0.0102 µM. On human CB1 receptor [2], this molecule showed a concentration for a half-maximal effect (EC50) of 0.245 µM.

In turn, `Cc1ccc2c(c1)n(CC1CCCCC1)c(=O)n2C(=O)N[C@H](C(N)=O)C1CCCCC1` [Example 273] gave a Ki at human CB1 receptor [1] of 0.0575 µM. At human CB1 receptor [2], this molecule gave an EC50 of 0.244 µM.

As to `CC(C)(C)[C@H](NC(=O)n1c(=O)n(CC2CCC(F)(F)CC2)c2ccccc21)C(N)=O` [Example 306], the Ki at human CB1 receptor [1] is 0.00031 µM. This molecule gave an EC50 on human CB1 receptor [2] of 0.00345 µM.

The molecule `CC(C)(C)[C@H](NC(=O)n1c(=O)n(CC2CCCCC2)c2ccccc21)C(N)=O` [Example 200] displayed an inhibition constant (Ki) on human CB1 receptor [1] of 0.00052 µM. Moreover, the concentration giving a half-maximal response (EC50) at human CB1 receptor [2] worked out at 0.0969 µM.

Consider `Cc1ccc2c(c1)n(CC1CCCCC1)c(=O)n2C(=O)N[C@H](C(N)=O)C(C)C` [Example 269], for which the inhibition constant Ki at human CB1 receptor [1] was 0.00295 µM. Also, the concentration giving a half-maximal response (EC50) on human CB1 receptor [2] amounted to 0.024 µM.

In turn, `Cc1cc(CNC(=O)n2c(=O)n(CC3CCOCC3)c3ccccc32)c(C(F)(F)F)o1` [Example 320] registered an inhibitory constant (Ki) at human CB1 receptor [1] of 0.0042 µM. For the same molecule, the EC50 on human CB1 receptor [2] worked out at 0.0986 µM.

At human CB1 receptor [1], `CCCCCn1c(=O)n(C(=O)N[C@H](C(N)=O)C(C)(C)C)c2ccccc21` [Example 202] yielded a Ki of 0.00452 µM. At human CB1 receptor [2], this molecule registered an EC50 of 0.0201 µM.

As for `CC(C)(C)[C@H](NC(=O)n1c(=O)n(CC2CC=C(F)CC2)c2ccccc21)C(N)=O` (some centres unmarked) [Example 304], the Ki on human CB1 receptor [1] is 0.00015 µM. In addition, the EC50 on human CB1 receptor [2] amounted to 0.00087 µM.

Take `CC(C)(C)[C@H](NC(=O)n1c(=O)n(CC2CCOCC2)c2cc(F)ccc21)C(=O)NCCO` [Example 356]: on human CB1 receptor [1], the Ki is 0.0166 µM. The same molecule had a half-maximal effective concentration (EC50) on human CB1 receptor [2] of 0.219 µM.

As to `O=C(N[C@H]1c2ccccc2C[C@H]1O)n1c(=O)n(CC2CCCCC2)c2ccccc21` [Example 188], affinity on human CB1 receptor [1] was put at a Ki of 0.0019 µM. At human CB1 receptor [2], this molecule showed an EC50 of 0.0877 µM.

Molecule `CC(C)(C)[C@H](NC(=O)n1c(=O)n(Cc2cccc(F)c2)c2ccccc21)C(N)=O` [Example 362] had a Ki on human CB1 receptor [1] of 0.0037 µM. A half-maximal response at human CB1 receptor [2] (EC50) required 0.106 µM.

`CC(C)(C)[C@H](NC(=O)n1c(=O)n(CCCCC#N)c2ccccc21)C(N)=O` [Example 223]: on human CB1 receptor [1], the inhibition constant (Ki) is 0.102 µM. The half-maximal effective concentration (EC50) at human CB1 receptor [2] came to 1.86 µM.

On human CB1 receptor [1], `CC(C)(C)[C@H](NC(=O)n1c(=O)n(CC2CCC2)c2ccccc21)C(N)=O` [Example 201] displayed an inhibitory constant (Ki) of 0.00494 µM. The same molecule had an EC50 at human CB1 receptor [2] of 0.0453 µM.

Molecule `CC(C)(C)[C@H](NC(=O)n1c(=O)n(CC2CCCCC2)c2cc(Br)ccc21)C(N)=O` [Example 307] gave a Ki at human CB1 receptor [1] of 0.00185 µM. This molecule also had an EC50 at human CB1 receptor [2] of 0.0495 µM.

For the molecule `O=C(N[C@H]1CCCc2ccccc21)n1c(=O)n(CC2CCC2)c2ccccc21` [Example 198], the Ki at human CB1 receptor [1] worked out at 0.00579 µM. Also, the EC50 on human CB1 receptor [2] amounted to 0.0465 µM.

Molecule `CC(C)(C)[C@H](NC(=O)n1c(=O)n(CC2CCOCC2)c2ccccc21)C(=O)NCC(N)=O` [Example 302] yielded a Ki at human CB1 receptor [1] of 0.0823 µM. This molecule also returned an EC50 at human CB1 receptor [2] of 0.407 µM.

Take `CC(C)(C)[C@H](NC(=O)n1c(=O)n(Cc2ccccc2)c2ccccc21)C(N)=O` [Example 348]: the inhibition constant Ki on human CB1 receptor [1] amounted to 0.00564 µM. At human CB1 receptor [2], this molecule yielded an EC50 of 0.0601 µM.

The values above are taken from patent publication US20090298811A1, “BENZIMIDAZOLONE DERIVATIVES” (Pfizer Inc, priority 2006, published 2009).
